Here are results for two molecules from paper PMC3774597 (Journal of biomolecular screening, 2012).

Series [1] deals with T1, isoleucyl-tRNA synthetase (IleRS) (Trypanosoma brucei, UniProt Q38A55).
T1 sequence (Q38A55 67-1143): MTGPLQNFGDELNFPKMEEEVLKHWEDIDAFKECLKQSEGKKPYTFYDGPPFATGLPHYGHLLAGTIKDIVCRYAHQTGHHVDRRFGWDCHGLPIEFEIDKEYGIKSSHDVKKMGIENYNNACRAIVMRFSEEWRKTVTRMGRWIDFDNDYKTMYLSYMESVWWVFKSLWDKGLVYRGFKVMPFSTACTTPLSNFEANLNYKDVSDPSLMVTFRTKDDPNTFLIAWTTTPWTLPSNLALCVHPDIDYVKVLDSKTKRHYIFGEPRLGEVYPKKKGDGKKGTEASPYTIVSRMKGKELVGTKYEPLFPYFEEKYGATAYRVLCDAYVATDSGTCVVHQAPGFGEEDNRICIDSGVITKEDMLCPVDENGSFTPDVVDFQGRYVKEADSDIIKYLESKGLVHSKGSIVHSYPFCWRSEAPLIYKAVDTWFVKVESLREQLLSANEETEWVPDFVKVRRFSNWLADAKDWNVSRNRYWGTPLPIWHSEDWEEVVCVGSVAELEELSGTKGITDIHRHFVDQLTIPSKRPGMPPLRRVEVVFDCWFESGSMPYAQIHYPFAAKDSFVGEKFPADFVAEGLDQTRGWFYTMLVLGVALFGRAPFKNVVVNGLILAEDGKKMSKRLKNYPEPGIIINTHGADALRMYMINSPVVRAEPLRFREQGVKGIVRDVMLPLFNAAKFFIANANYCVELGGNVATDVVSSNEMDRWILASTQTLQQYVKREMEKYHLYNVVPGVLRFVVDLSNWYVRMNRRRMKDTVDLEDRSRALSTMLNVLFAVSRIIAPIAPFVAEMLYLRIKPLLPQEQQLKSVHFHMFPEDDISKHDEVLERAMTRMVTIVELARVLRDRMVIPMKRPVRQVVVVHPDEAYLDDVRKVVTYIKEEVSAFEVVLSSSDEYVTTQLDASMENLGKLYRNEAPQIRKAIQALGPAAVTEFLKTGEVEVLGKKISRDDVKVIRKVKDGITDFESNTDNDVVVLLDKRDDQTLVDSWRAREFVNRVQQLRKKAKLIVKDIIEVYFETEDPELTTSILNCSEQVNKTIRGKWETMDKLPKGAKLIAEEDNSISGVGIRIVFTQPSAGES
Briefly: malachite green aminoacylation assay coupled to pyrophosphatase, dose response. The series is classed as biochemical.

Substrate in series [2]: CC[C@H](C)[C@H](N)C(=O)O
Description: Michaelis-Menten kinetics. The series is classed as biochemical, Trypanosoma brucei.

Usually IC50 stands for the concentration that gives 50% inhibition. Read a high IC50 as lower potency. Take `CC(C)(C)[Si](C)(C)OCC1OC(n2cnc3c(N)ncnc32)C(O)C1O` (centres unmarked) [NSC616354]: half-maximal inhibition in series [1] (IC50) required 600 nM.

B1: isoleucyl-tRNA synthetase (IleRS) (Trypanosoma brucei brucei TREU927) (protein)
chain: T1 sequence (Q38A55 67-1143)
As usually defined, the Km is the concentration of substrate that gives half-maximal velocity. With B1, in series [2], the Km was determined as 39.7 µM.
